Assay results reported in patent US11446299B2, “Carbazole EHop-016 derivatives as anticancer and anti-migratory agents” (UNIVERSITY OF PUERTO RICO, priority 2017, dated 2022).
“Also recorded” adds a separate entry of the source.

Assays:
Format in all cases: cell-based, human
[1] = tested on: non-cancerous mammary epithelial cells MCF10A; assay: Cell viability, CellTiter 96 AQueous One Solution Cell Proliferation Assay; conditions: for toxicity / effect on viability of non-cancerous mammary epithelial cells, in words: MCF10A, at the concentrations tested
Experimental: (§1) FIG. 7. Effect of HV-107 on cell viability. Cells were treated with vehicle control (0.5% DMSO) or varying concentrations of HV-107 (250-6000 nM) for 48 h. Cell viability was measured using the CellTiter 96® AQueous One Solution Cell Proliferation Assay from Promega, as per manufacturer's instruction. Relative cell viability is presented for non-cancerous mammary epithelial cells (MCF10A) or metastatic breast cancer cells MDA-MB-231 or MDA-MB-435. N=3-4, each with three technical replicates; Error bars represent ±SEM; * p≤0.05.
(§2) FIG. 9. Effect of HV-118 on cell viability. Cells were treated with vehicle control (0.5% DMSO) or varying concentrations of HV-118 (10-500 nM) for 48 h. Cell viability was measured using the CellTiter 96® AQueous One Solution Cell Proliferation Assay from Promega, as per manufacturer's instruction. Relative cell viability is presented for human non-cancerous mammary epithelial cells (MCF10A) or human metastatic breast cancer cells MDA-MB-231 or MDA-MB-435. N=3, each with three technical replicates; error bars represent ±SEM; * p≤0.05.
(§3) Cells were treated with ehicle control (0.5% DMSO) or varying concentrations of HV-107 (250-8000 nM) for 24 or 48 h. Cell viability was measured using the CellTiter 96® AQueous One Solution Cell Proliferation Assay from Promega, as per manufacturer's instruction. Relative cell viability is presented for non-cancerous mammary epithelial cells MCF10A (FIG. 7) or metastatic breast cancer cells MDA-MB-231 or MDA-MB-435. N=3, each with three technical replicates; Error bars represent ±SEM; * p≤0.05.
(§4) Cells were treated with vehicle control (0.5% DMSO) or varying concentrations of HV-118 (10-500 nM) for 48 h. Cell viability was measured using the CellTiter 96® AQueous One Solution Cell Proliferation Assay from Promega, as per manufacturer's instruction. Relative cell viability is presented for human non-cancerous mammary epithelial cells MCF10A (FIG. 9) or human metastatic breast cancer cells MDA-MB-231 or MDA-MB-435. N=3, each with three technical replicates; error bars represent ±SEM; * p≤0.05.

[2] = tested on: MDA-MB-231 metastatic breast cancer cells; assay: as above; conditions: HV-107 24 or 48 h, HV-118 48 h
Experimental: as §1, §2, §3, §4

[3] = tested on: MDA-MB-435 metastatic breast cancer cells; assay: as above; conditions: HV-107 24 or 48 h, HV-118 48 h
Experimental: as §1, §2, §3, §4

[4] = tested on: MDA-MB-231 breast cancer cells; assay: Wound healing assay (scratch method), cell migration; conditions: Homo sapiens; percent relative migration at 10 μM after 24 h, relative to control, MDA-MB-231

Compound: CCn1c2ccccc2c2cc(C(=O)Nc3cccnc3N3CCOCC3)ccc21 [Compound 11b, 9-Ethyl-9H-carbazole-3-carboxylic Acid (2-morpholin-4-yl-pyridin-3-yl)-amide]
- toxicity / effect on viability of non-cancerous mammary epithelial cells, in words ([1]; listed as HV-107): minimal toxicity; also recorded: minimal or no inhibition
- toxicity to non-cancerous mammary epithelial cells, in words ([1]; at concentrations ≥1 μM): not toxic
- concentration at which viability is significantly inhibited [2]: ≥ 500 nM
- concentration at which viability is significantly inhibited [3]: ≥ 500 nM
- activity at 10 µM [4]: 66 ± 7.43%

Compound: CCn1c2ccccc2c2cc(Nc3cc(C)nc(Cl)n3)ccc21 [HV-118, (2-Chloro-6-methyl-pyrimidin-4-yl)-(9-ethyl-9H-carbazol-3-yl)-amine]
- toxicity / effect on viability of non-cancerous mammary epithelial cells, in words [1]: minimal effects; also recorded: minimal or no inhibition; also recorded: minimal toxicity
- concentration at which viability is significantly inhibited [2]: ≥ 50 nM
- concentration at which viability is significantly inhibited [3]: ≥ 50 nM
